From patent publication US6680379B1, “Organic anion transporter genes and proteins” (Metabasis Therapeutics, Inc., priority 1999, dated 2004)

Key:
hOAT2A [1] = biological target: T1, hOAT2A (Homo sapiens, UniProt Q9Y694); assay: Competition assay of 3H-PAH uptake in EcR293/OAT2A cells; assay type: cell-based; design: Isolation of Full-length Human OAT2A and OAT2B cDNA; expressed in transfected cells; host or cells: EcR293 (Invitrogen); conditions: 100 μM competitor
T1 sequence (Q9Y694 1-546 isoform Q9Y694-2): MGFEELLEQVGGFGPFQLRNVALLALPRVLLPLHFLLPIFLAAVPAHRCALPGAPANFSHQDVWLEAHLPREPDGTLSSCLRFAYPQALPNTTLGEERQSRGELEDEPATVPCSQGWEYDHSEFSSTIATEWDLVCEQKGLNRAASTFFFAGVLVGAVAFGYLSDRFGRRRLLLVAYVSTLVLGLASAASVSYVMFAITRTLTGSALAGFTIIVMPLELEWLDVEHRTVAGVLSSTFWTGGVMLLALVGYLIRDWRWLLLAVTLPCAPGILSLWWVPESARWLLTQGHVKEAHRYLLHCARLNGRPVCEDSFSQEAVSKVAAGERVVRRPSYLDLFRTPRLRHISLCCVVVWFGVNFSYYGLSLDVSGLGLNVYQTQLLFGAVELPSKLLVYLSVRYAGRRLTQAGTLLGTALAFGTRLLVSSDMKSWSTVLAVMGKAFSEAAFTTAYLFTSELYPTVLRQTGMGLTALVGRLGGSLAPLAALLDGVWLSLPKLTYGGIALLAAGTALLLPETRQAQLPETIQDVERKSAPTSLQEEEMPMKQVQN

hOAT2A [2] = biological target: T1, hOAT2A; assay: 3H-PAH uptake in EcR293 cells stably containing pIND(sp1)-hOAT2A, ponasterone induced; conditions: EcR293, 1.25 μg/ml ponasterone for 24 hours
Text: Vector pIND(sp1) (Invitrogen) contains the ecdysone-inducible promoter (EcRE). […] After cloning, the vectors were separately transfected into cell line EcR293 (Invitrogen). […] The pVgRXR vector constitutively expresses the ecdysone receptor and the retinoid X receptor (RXR). The ecdysone receptor and RXR form a heterodimer which, upon activation by the hormone ecdysone, binds to a promoter containing the EcRE. The pVgRXR vector was maintained within the EcR293 cell line by selection with 400 μg/ml zeocin. The pIND(sp1)-hOAT plasmids contain a neomycin resistance marker, and cells stably integrating the plasmids were selected for by culturing the cells in media supplemented with 400 μg/ml G418. After two weeks of selection, individual colonies appeared and were isolated and expanded. […] The cells were then subjected to standard transport assays.
Expression of hOAT1 at high levels can be easily achieved by inducing with ponasterone for twenty-four (24) hours.

| 3H-PAH uptake, ponasterone induced versus non-induced cells (hOAT2A) (hOAT2A [2]) | Compound | effect on uptake of 3H-PAH in EcR293/OAT2A cells (hOAT2A [1]) | effect on uptake of 3H-PAH in EcR293/OAT2A cells (hOAT2A [1]; listed as sulfobromophthalein) |
| --- | --- | --- | --- |
|  | O=C1OC(c2ccc(O)c(S(=O)(=O)O)c2)(c2ccc(O)c(S(=O)(=O)O)c2)c2c(Br)c(Br)c(Br)c(Br)c21 [BSP, sulfobromophthalein] | blocked | competed |
| approximately 2.6 fold | Nc1ccc(C(=O)NCC(=O)O)cc1 [PAH, p-aminohippurate] |  |  |
